The supplement of paper PMC10307832

Assays:
Assay in all cases: relative viability (nuclei count vs DMSO), 5 days (fraction); higher = more cells survive
[1] = compound: CN1CCN(CC1)C2=CC(=C(C=C2)NC3=NC(=C(S3)C(=O)C4=C(C=CC=C4Cl)Cl)N)OC [XMD14-99] + NC(=O)Nc1cc(-c2cccc(F)c2)sc1C(=O)N[C@H]1CCCNC1 [AZD7762] (partner 0.2 µM)
Method in brief: (§1)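 A single step with final 0.05% Triton X-100, 1% formaldehyde and 1 ug/ml Hoechst fixed the cells and stained nuclei 5 days after treatment. Lung cancer cell lines in 1536-well plates had been treated by pin tool the day after seeding with one drug alone or a fixed anchor-drug dose plus five library-drug doses (not always all listed) in √10 steps, and nuclei were counted on 4× images. Relative viability is the ratio of nuclei in treated wells to nuclei in vehicle wells, taken as the median of duplicate plates.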

[2] = compound: N[C@@H]1CCCN(c2c(/C=C3\SC(=O)NC3=O)cccc2-c2ccccc2)C1 [AZD1208] + Nc1ncn([C@H]2C[C@H](O)[C@@H](CO)O2)c(=O)n1 [Decitabine] (partner 2 µM)
Method in brief: as §1

[3] = compound: N[C@@H]1CCCN(c2c(/C=C3\SC(=O)NC3=O)cccc2-c2ccccc2)C1 [AZD1208] + C[C@@H](Oc1cc(-c2cnn(C3CCNCC3)c2)cnc1N)c1c(Cl)ccc(F)c1Cl [Crizotinib] (partner 1 µM)
Method in brief: as §1

[4] = compound: CN1CCN(CC1)C2=CC(=C(C=C2)NC3=NC(=C(S3)C(=O)C4=C(C=CC=C4Cl)Cl)N)OC [XMD14-99] + CC(=O)c1c(C)c2cnc(Nc3ccc(N4CCNCC4)cn3)nc2n(C2CCCC2)c1=O [Palbociclib] (partner 0.5 µM)
Method in brief: as §1

Cell Line	relative viability ([1]; first compound 0.08 µM)	relative viability ([1]; first compound 0.8 µM)	relative viability ([1]; first compound 2.53 µM)	relative viability ([1]; first compound 8 µM)	relative viability ([2]; first compound 0.08 µM)	relative viability ([2]; first compound 0.253 µM)	relative viability ([2]; first compound 0.8 µM)	relative viability ([2]; first compound 2.53 µM)	relative viability ([2]; first compound 8 µM)	relative viability ([3]; first compound 0.08 µM)	relative viability ([3]; first compound 0.253 µM)	relative viability ([3]; first compound 0.8 µM)	relative viability ([3]; first compound 2.53 µM)	relative viability ([3]; first compound 8 µM)	relative viability ([4]; first compound 0.08 µM)	relative viability ([4]; first compound 0.8 µM)	relative viability ([4]; first compound 2.53 µM)	relative viability ([4]; first compound 8 µM)
HCC-15	1.22	1.17	1.21	1.04	0.612	0.624	0.491	0.576	0.575	0.849	0.788	0.707	0.752	0.641	0.733	0.765	0.733	0.629
A-427	0.692	0.621	0.496	0.454	0.541	0.568	0.528	0.508	0.448	0.888	0.974	0.797	0.851	0.767	0.515	0.554	0.488	0.452
NCI-H23	0.284	0.312	0.25	0.188	0.292	0.285	0.308	0.329	0.275	0.377	0.467	0.372	0.426	0.34	0.519	0.541	0.529	0.454
NCI-H1734	0.487	0.513	0.459	0.51	0.534	0.466	0.44	0.424	0.409	0.683	0.649	0.504	0.528	0.464	0.355	0.338	0.379	0.355
NCI-H1993	0.879	0.702	0.82	0.593	0.526	0.586	0.613	0.5	0.468		0.678	0.759	0.735	0.728	0.7	0.682	0.533	0.625
PC-3 [JPC-3]	0.905	0.789	0.681	0.553	0.81	0.932	0.751	0.887	0.81	1.01	0.996	1.04	1.05	0.982	0.574	0.501	0.59	0.538
NCI-H1915	0.668	0.676	0.701	0.629	0.249	0.263	0.235	0.271	0.231	0.847	0.982	0.865	0.885	0.845	0.555	0.552	0.516	0.517
NCI-H1666	0.858	0.801	0.731	0.736	0.735	0.713	0.635	0.743	0.629	1.06	0.934	0.837	0.905	1.03	0.626	0.564	0.63	0.666
HCC-366	0.237	0.215	0.251	0.187	0.315	0.354	0.312	0.386	0.333	0.479	0.593	0.536	0.452	0.246	0.452	0.383	0.346	0.306
